Measured values: US9656994B2, “Substituted benzimidazoles as nociceptin receptor modulators” (The Scripps Research Institute, priority 2013, dated 2017)
Read-outs that look alike come from different tables or passages of the source.

Columns and labels:
[1] = target: T1, NOP (Homo sapiens, UniProt P41146); assay: cAMP biosensor assay, NOP antagonist mode; assay type: cell-based
[2] = target: T1, NOP; assay: cAMP biosensor assay, NOP agonist mode; assay type: cell-based
[3] = target: T2, MOP (Homo sapiens, UniProt P35372); assay: cAMP biosensor assay, MOP antagonist mode; assay type: cell-based
T2 sequence (P35372 whole entry): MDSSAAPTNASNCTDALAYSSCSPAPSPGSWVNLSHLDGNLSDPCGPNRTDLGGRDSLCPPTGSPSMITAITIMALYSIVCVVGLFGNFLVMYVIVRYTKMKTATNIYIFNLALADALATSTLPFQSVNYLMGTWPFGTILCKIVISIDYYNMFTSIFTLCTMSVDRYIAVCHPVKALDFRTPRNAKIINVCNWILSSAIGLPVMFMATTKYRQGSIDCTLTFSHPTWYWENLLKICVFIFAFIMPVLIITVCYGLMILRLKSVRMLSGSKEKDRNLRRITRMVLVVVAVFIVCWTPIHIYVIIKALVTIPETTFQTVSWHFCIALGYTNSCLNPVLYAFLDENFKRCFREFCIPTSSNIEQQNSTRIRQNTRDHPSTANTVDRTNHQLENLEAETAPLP

[4] = target: T2, MOP; assay: cAMP biosensor assay, MOP agonist mode; assay type: cell-based
[5] = blood-brain barrier penetration; conditions: in vivo
[6] = test system: selected cytochrome P450 enzymes; assay: affinity for selected cytochrome P450 enzymes
[7] = HEK293-CNG cells expressing NOP, antagonist mode with 5 nM nociceptin, read-out: NOP Antagonist IC50
[8] = HEK293-CNG cells expressing NOP, agonist mode, 11 point concentration-response, read-out: NOP Agonist EC50

T1 sequence (P41146 whole entry): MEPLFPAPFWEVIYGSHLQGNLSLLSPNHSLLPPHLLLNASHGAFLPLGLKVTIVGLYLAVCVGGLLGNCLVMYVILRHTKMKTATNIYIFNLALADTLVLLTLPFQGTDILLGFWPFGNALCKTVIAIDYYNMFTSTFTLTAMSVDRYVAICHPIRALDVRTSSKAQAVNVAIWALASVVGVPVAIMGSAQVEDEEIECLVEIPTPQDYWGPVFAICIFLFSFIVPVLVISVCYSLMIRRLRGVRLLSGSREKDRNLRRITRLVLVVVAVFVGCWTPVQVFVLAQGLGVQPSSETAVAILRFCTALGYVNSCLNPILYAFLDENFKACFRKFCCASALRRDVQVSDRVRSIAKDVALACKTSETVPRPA

Structure (SMILES)	IC50 [1, 7]	EC50 [2, 8]	IC50 [3]	EC50 [4]	blood-brain barrier penetration [5]	affinity for selected cytochrome P450 enzymes [6]	IC50 [1]	EC50 [2]
c1ccc2c(c1)nc(C1CCNCC1)n2C1CCN(CC2CCCCCCC2)CC1 [Cpd 10]	> 10 µM	3.5 µM	> 10 µM	0.4 µM	–	–	–	–
c1ccc2c(c1)nc([C@@H]1CCNC1)n2C1CCN(CC2CCCCCCC2)CC1 [Cpd 11]	–	–	–	–	44%	low affinity	–	–
O[C@H]1CN[C@H](c2nc3ccccc3n2C2CCN(CC3CCCCCCC3)CC2)C1 [Cpd 18]	–	–	–	0.57 µM	–	–	7.8 µM	1.4 µM
Fc1ccc2c(c1)nc([C@@H]1CCCNC1)n2C1CCN(CC2CCCCCCC2)CC1 [Cpd 30]	3.9 µM	0.15 µM	3 µM	0.23 µM	–	–	–	–
Cc1ccc2c(c1)nc([C@@H]1CCNC1)n2C1CCN(CC2CCCCCCC2)CC1 [Cpd 41]	> 10 µM	6.3 µM	> 100 µM	5.9 µM	–	–	–	–
CS(=O)(=O)c1ccc2c(c1)nc([C@@H]1CCNC1)n2C1CCN(CC2CCCCCCC2)CC1 [Cpd 44]	> 10 µM	3.3 µM	> 10 µM	–	–	–	–	–
C1=CC2CC1CC2CN1CCC(n2c(C3CNC3)nc3ccccc32)CC1 (stereo not shown) [Cpd 47]	> 10 µM	0.31 µM	> 10 µM	0.3 µM	–	–	–	–
CC1=C(CN2CCC(n3c(C4CNC4)nc4cc(F)ccc43)CC2)C(C)(C)CCC1 [Cpd 53]	> 10 µM	0.21 µM	> 10 µM	–	–	–	–	–
c1ccc2c(c1)nc(C1CNC1)n2C1CCN(CC2CCCCC2)CC1 [Cpd 55]	> 10 µM	0.14 µM	> 10 µM	–	–	–	–	–
CC1(C)[C@H]2CC=C(CN3CCC(n4c([C@@H]5CCCNC5)nc5ccccc54)CC3)[C@@H]1C2 [Cpd 58]	> 10 µM	1.6 µM	> 10 µM	–	–	–	–	–
c1ccc(CN2CCC(n3c([C@@H]4CCNC4)nc4ccccc43)CC2)cc1 [Cpd 59]	> 10 µM	0.37 µM	> 10 µM	0.27 µM	–	–	–	–
